Measured values taken from patent US4119657A, “Novel peroxycarbonate” (priority 1976, dated 1978).
Read-outs that look alike come from different tables or passages of the source.

Assays:
[1] = 105° C
Text: The susceptibility of the peroxycarbonate to heat decomposition can be ascertained from its half life and the foaming temperature thereof.

[2] = Foaming decomposition temperature; format: physicochemical
[3] = prior art peroxide, peroxy group in the copolymer; cited from earlier work
[4] = prior art peroxide; cited from earlier work

| Compound | Half life ([1]; solvent benzene) | foaming decomposition temperature [2] | Half life ([1]; solvent toluene) | decomposition activity, in words [3] | storage stability, in words [4] |
| --- | --- | --- | --- | --- | --- |
| C=CCOC(=O)OOC(C)(C)CC(C)(C)C [1,1,3,3-tetramethylbutylperoxy allyl carbonate] | 1.4 h | 103.5 °C |  |  |  |
| C=CCOC(=O)OOC(C)(C)C [t-butylperoxy allyl carbonate] | 3.9 h | 117.5 °C | 6.9 h |  |  |
| C/C=C/C(=O)OOC(C)(C)C [t-butylperoxycrotonate] |  |  |  | active at low temperature |  |
| t-hexylperoxy allyl carbonate | 3.8 h | 107.3 °C |  |  |  |
| CC(C)C(=O)OOC(C)(C)C [t-butyl peroxy isobutyrate, t-butyl peroxyisobutyrate, reference compound] | 0.37 h |  |  |  |  |
| t-hexylperoxy methallyl carbonate | 2.9 h | 115.5 °C |  |  |  |
| C=C(C)COC(=O)OOC(C)(C)CC(C)(C)C [1,1,3,3-tetramethylbutylperoxy methallyl carbonate] | 1.1 h | 106.5 °C |  |  |  |
| C=C(C)COC(=O)OOC(C)(C)C [t-butylperoxy methallyl carbonate] | 2.9 h | 117.5 °C | 4.9 h |  |  |
| butyl peroxymethacrylate |  |  |  |  | not stable during storage |
| CC(C)OC(=O)OOC(C)(C)C [t-butylperoxy isopropyl carbonate, reference compound] | 4.1 h |  |  |  |  |
